Assay results published in patent US12516052B2, “Methyltransferase 5 (PRMT5) inhibitors and methods of treatment” (THE TRUSTEES OF INDIANA UNIVERSITY, priority 2016, dated 2026).
“Also recorded” adds a separate entry of the source.

Experiments:
HT29 cells [1] = experiment: HT29 subcutaneous xenograft tumor efficacy study in NSG mice; type: in vivo; settings: 20 mg/kg intraperitoneally 3×/week, vs vehicle control, n=4
Procedure: (§1) NSG (NOD scid gamma) mice were obtained from the In Vivo Therapeutics Core at Indiana University School of Medicine. After acclimation for 7 days, NSG mice (6-8 weeks old) were xenografted with mycoplasma-free PANC1 or HT29 cells subcutaneously (1×10^7 PANC1 or 3×10^6 HT29 cells used per mouse in 0.2 ml of a 1:1 mix of phosphate-buffered saline and MATRIGEL™) (BD Biosciences, San Jose, CA). Mice were randomized when tumor volumes reached about 100 mm^3. Mice were treated with either vehicle control or 20 mg/kg of compound (Ia) (drug stock dissolved in 1:1 CREMOPHOR™:ethanol solution) intraperitoneally 3 times per week. Tumor volumes and body weights were measured twice a week. The study was performed in accordance with the guidelines and standards of the Institutional Animal Care and Use Committee (IACUC). […] NSG (NOD scid gamma) mice were obtained from the In Vivo Therapeutics Core at Indiana University School of Medicine. After acclimation for 7 days, NSG mice (6-8 weeks old) were xenografted with mycoplasma-free PANC1 or HT29 cells subcutaneously (1×10^7 PANC1 or 3×10^6 HT29 cells used per mouse in 0.2 ml of a 1:1 mix of phosphate-buffered saline and MATRIGEL™) (BD Biosciences, San Jose, CA). Mice were randomized when tumor volumes reached about 100 mm^3. […] Tumor volumes and body weights were measured twice a week. […]

[2] = system: NF-κB target genes (TNFα and IL8); experiment: qPCR of NF-κB target genes in HT29 cells; type: cell-based; settings: treated vs untreated
Procedure: (§2) Furthermore, experiments were performed to determine if PRMT5 inhibition by compound (IIa) could decrease the expression of NF-κB target genes (e.g., pro-inflammatory cytokines TNFα and IL-8). Briefly, HT29 and PANC1 cells were treated with or without compound (IIa), and target gene expression was analyzed by quantitative PCR.

[3] = system: PRMT5-mediated p65 methylation; experiment: Co-immunoprecipitation-Western blot of p65 dimethylation in 293-WT-p65-Flag cells; type: cell-based; settings: 20 μM for 24 hours, compared to untreated control
Text: FIGS. 2A-D depict the experimental results of studies to determine the PRMT5 inhibitory activity of a compound of formula (II), a compound of formula (III), and a compound of formula (IV). […] Flag beads were used to pull down WT-p65-Flag and samples were then probed with anti-symmetric dimethyl arginine motif Ab (sdme-RG Ab) to detect dimethylation levels of the p65 subunit.
Amongst the hits, the leading compounds were a compound of formula (II), specifically compound (IIa), a compound of formula (III), specifically compound (IIIa), and a compound of formula (IV), specifically compound (Iva). […] To determine whether compound (IIa) reduced p65 methylation of NF-κB, Flag-p65 expressing cells were treated with 20 μM compound (IIa) for 24 hours, Flag-p65 was then pulled down with anti-Flag-M2 beads and analyzed with Western blot by probing with anti-dimethylated arginine (FIG. 2B).

PANC1 cells [4] = experiment: Anchorage-independent (soft agar) growth assay in PANC1 cells; type: cell-based; settings: increasing concentrations
Procedure: (§3) The ability to form colonies suspended in soft agar is a characteristic of cancer cells. By using the stable cell lines established above, an anchorage-independent assay in soft agar was conducted. 2.5% and 1.25% agar were used to prepare the bottom and top layers of the soft agar, respectively. The bottom agar was added to each well of a 6-well plate. 2×10^5 cells for each cell line were then added and mixed into top agar solution and layered on top of the bottom layer. The plates were incubated for 10-20 days at 37° C. and 5% CO2. Images were captured using a Canon EOS Rebel T3i Digital SLR camera (Canon, Woodridge, IL) and quantification of colony size and number was performed using ImageJ. […] A soft agar experiment was also performed to determine the effect of compound (IIa) on colony growth.

HT29 cells [5] = experiment: Anchorage-independent (soft agar) growth assay in HT29 cells; type: cell-based; settings: increasing concentrations
Procedure: as §3

[6] = Body weight of xenografted NSG mice during treatment; type: in vivo; settings: 20 mg/kg intraperitoneally 3×/week, over the course of treatment
Procedure: NSG (NOD scid gamma) mice were obtained from the In Vivo Therapeutics Core at Indiana University School of Medicine. After acclimation for 7 days, NSG mice (6-8 weeks old) were xenografted with mycoplasma-free PANC1 or HT29 cells subcutaneously (1×10^7 PANC1 or 3×10^6 HT29 cells used per mouse in 0.2 ml of a 1:1 mix of phosphate-buffered saline and MATRIGEL™) (BD Biosciences, San Jose, CA). Mice were randomized when tumor volumes reached about 100 mm^3. Mice were treated with either vehicle control or 20 mg/kg of compound (Ia) (drug stock dissolved in 1:1 CREMOPHOR™:ethanol solution) intraperitoneally 3 times per week. Tumor volumes and body weights were measured twice a week. The study was performed in accordance with the guidelines and standards of the Institutional Animal Care and Use Committee (IACUC). […] NSG (NOD scid gamma) mice were obtained from the In Vivo Therapeutics Core at Indiana University School of Medicine. After acclimation for 7 days, NSG mice (6-8 weeks old) were xenografted with mycoplasma-free PANC1 or HT29 cells subcutaneously (1×10^7 PANC1 or 3×10^6 HT29 cells used per mouse in 0.2 ml of a 1:1 mix of phosphate-buffered saline and MATRIGEL™) (BD Biosciences, San Jose, CA). Mice were randomized when tumor volumes reached about 100 mm^3. Mice were treated with either vehicle control or 20 mg/kg of compound (IIa) (drug stock dissolved in 1:1 CREMOPHOR™:ethanol solution) intraperitoneally 3 times per week. Tumor volumes and body weights were measured twice a week. The study was performed in accordance with the guidelines and standards of the Institutional Animal Care and Use Committee (IACUC).

[7] = system: NF-κB target genes (TNFα and IL8); experiment: qPCR of NF-κB target genes in PANC1 cells; type: cell-based; settings: treated vs untreated
Procedure: as §2

NF-κB = NF-κB luciferase assay in PANC1 cells; type: cell-based; settings: increasing concentrations
Text: Previously, it was discovered that PRMT5 activates NF-κB through methylation of its p65 subunit in HEK293 cells (Wei et al., Proc Natl Acad Sci USA, 2013; 110: 13516-13521; Wei et al., Cell Cycle, 2013; 13: 32-41). As shown in FIGS. 11A and 11B, overexpression of PRMT5 enhances NF-κB activity, while PRMT5 knockdown causes the opposite effect in both PANC1 (FIG. 11A) and HT-29 (FIG. 11B) cells. To determine if compound (IIa) decreases NF-κB activity, cells transfected with a NF-κB luciferase construct were treated with increasing concentrations of compound (IIa) or the control compound EPZ015666.

PANC1 cells [8] = experiment: PANC1 subcutaneous xenograft tumor efficacy study in NSG mice; type: in vivo; settings: 20 mg/kg intraperitoneally 3×/week, vs vehicle control, n=4
Procedure: as §1

Cc1ccc(Nc2nc(NCCN(C)C)nc3c2cnn3-c2ccccc2)cc1C [compound (IIa)]
tumor growth (tumor volume), HT29 xenograft (HT29 cells [1]): significant tumor inhibition effect; also recorded: inhibition of tumor growth
IL8 expression (qPCR), HT29 [2]: significant decrease; also recorded: dramatically decreased
TNFα expression (qPCR), HT29 [2]: significant decrease; also recorded: dramatically decreased
methylation of PRMT5 substrate p65 [3]: significantly inhibited PRMT5-mediated p65 methylation; also recorded: inhibited the methylation of PRMT5 substrate, p65
anchorage-independent growth / colony formation, PANC1 (PDAC) (PANC1 cells [4]): strongly inhibited colony formation; also recorded: significant decrease
anchorage-independent growth / colony formation, HT29 (CRC) (HT29 cells [5]): strongly inhibited colony formation; also recorded: significant decrease
body weight, HT29 model [6]: did not visibly affect the body weight; also recorded: no significant changes in body weight
body weight, PANC1 model [6]: did not visibly affect the body weight; also recorded: no significant changes in body weight
IL8 expression (qPCR), PANC1 [7]: significant decrease; also recorded: dramatically decreased
TNFα expression (qPCR), PANC1 [7]: significant decrease; also recorded: dramatically decreased
NF-κB activation (luciferase), PANC1 (NF-κB): corresponding decrease in NF-κB activation
tumor growth (tumor volume), PANC1 xenograft (PANC1 cells [8]): significant tumor inhibition effect; also recorded: inhibition of tumor growth
